Test system: 945468-187-T-J3-PDC spheroids with HUVEC/MSC, viability
Experiment: Anticancer human tumor 945468-187-T-J3-PDC patient-derived rectal carcinoma cell line growth inhibition [PI3K]
Conditions: for IC50: curve of first compound; for viability, T/C: stronger effect = lower value
Method in brief: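 Viability of mixed-cell spheroids was determined after exposure to pairwise combinations, one partner being inavolisib, alpelisib, duvelisib or copanlisib. Highest tested concentration matched clinical Cmax where known and 10 microM where not, descending in half-log steps.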

[1] = second compound 0.0316 µM, first compound 0.0316 µM
[2] = second compound 0.0316 µM, first compound 0.1 µM
[3] = second compound 0.1 µM, first compound 0.0316 µM
[4] = second compound 0.1 µM, first compound 0.1 µM
[5] = second compound 0.316 µM, first compound 0.0316 µM
[6] = second compound 0.316 µM, first compound 0.1 µM
[7] = second compound 1 µM, first compound 0.0316 µM
[8] = second compound 1 µM, first compound 0.1 µM
[9] = second compound 3.16 µM, first compound 0.0316 µM
[10] = second compound 3.16 µM, first compound 0.1 µM
[11] = second compound 10 µM, first compound 0.0316 µM
[12] = second compound 10 µM, first compound 0.1 µM
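Further: spheroids exposed to agents for 7 days before viability read.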
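Wherever viability, T/C is given: 100% = DMSO vehicle control viability.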

CC(=O)c1c(C)c2cnc(Nc3ccc(N4CCNCC4)cn3)nc2n(C2CCCC2)c1=O + Cc1nc(NC(=O)N2CCCC2C(N)=O)sc1-c1ccnc(C(C)(C)C(F)(F)F)c1
IC50 (second compound 0.0316 µM): > 100 nM | IC50 (second compound 0.1 µM): > 100 nM | IC50 (second compound 0.316 µM): > 100 nM | IC50 (second compound 1 µM): > 100 nM | IC50 (second compound 3.16 µM): > 100 nM | IC50 (second compound 10 µM): 12.4 nM | viability, T/C (second compound 0.0316 µM, first compound 0.000316 µM): 98.8% | viability, T/C (second compound 0.0316 µM, first compound 0.001 µM): 100% | viability, T/C (second compound 0.0316 µM, first compound 0.00316 µM): 90.7% | viability, T/C (second compound 0.0316 µM, first compound 0.01 µM): 107% | viability, T/C [1]: 97.5% | viability, T/C [2]: 104% | viability, T/C (second compound 0.1 µM, first compound 0.000316 µM): 91.5% | viability, T/C (second compound 0.1 µM, first compound 0.001 µM): 107% | viability, T/C (second compound 0.1 µM, first compound 0.00316 µM): 85.5% | viability, T/C (second compound 0.1 µM, first compound 0.01 µM): 91% | viability, T/C [3]: 100% | viability, T/C [4]: 102% | viability, T/C (second compound 0.316 µM, first compound 0.000316 µM): 103% | viability, T/C (second compound 0.316 µM, first compound 0.001 µM): 101% | viability, T/C (second compound 0.316 µM, first compound 0.00316 µM): 103% | viability, T/C (second compound 0.316 µM, first compound 0.01 µM): 97.9% | viability, T/C [5]: 99.8% | viability, T/C [6]: 94.3% | viability, T/C (second compound 1 µM, first compound 0.000316 µM): 111% | viability, T/C (second compound 1 µM, first compound 0.001 µM): 103% | viability, T/C (second compound 1 µM, first compound 0.00316 µM): 100% | viability, T/C (second compound 1 µM, first compound 0.01 µM): 97.6% | viability, T/C [7]: 101% | viability, T/C [8]: 102% | viability, T/C (second compound 3.16 µM, first compound 0.000316 µM): 106% | viability, T/C (second compound 3.16 µM, first compound 0.001 µM): 93.2% | viability, T/C (second compound 3.16 µM, first compound 0.00316 µM): 90.5% | viability, T/C (second compound 3.16 µM, first compound 0.01 µM): 90.7% | viability, T/C [9]: 90.7% | viability, T/C [10]: 76.2% | viability, T/C (second compound 10 µM, first compound 0.000316 µM): 57.6% | viability, T/C (second compound 10 µM, first compound 0.001 µM): 56% | viability, T/C (second compound 10 µM, first compound 0.00316 µM): 55.1% | viability, T/C (second compound 10 µM, first compound 0.01 µM): 49.3% | viability, T/C [11]: 46% | viability, T/C [12]: 31.3%

CNC(=O)c1ccc(N2C(=S)N(c3ccc(C#N)c(C(F)(F)F)c3)C(=O)C2(C)C)cc1F + Cc1nc(NC(=O)N2CCCC2C(N)=O)sc1-c1ccnc(C(C)(C)C(F)(F)F)c1
IC50 (second compound 0.0316 µM): > 10000 nM | IC50 (second compound 0.1 µM): > 10000 nM | IC50 (second compound 0.316 µM): > 10000 nM | IC50 (second compound 1 µM): > 10000 nM | IC50 (second compound 3.16 µM): > 10000 nM | IC50 (second compound 10 µM): > 10000 nM | viability, T/C [1]: 102% | viability, T/C [2]: 108% | viability, T/C (second compound 0.0316 µM, first compound 0.316 µM): 96.1% | viability, T/C (second compound 0.0316 µM, first compound 1 µM): 115% | viability, T/C (second compound 0.0316 µM, first compound 3.16 µM): 107% | viability, T/C (second compound 0.0316 µM, first compound 10 µM): 104% | viability, T/C [3]: 108% | viability, T/C [4]: 106% | viability, T/C (second compound 0.1 µM, first compound 0.316 µM): 99.7% | viability, T/C (second compound 0.1 µM, first compound 1 µM): 105% | viability, T/C (second compound 0.1 µM, first compound 3.16 µM): 116% | viability, T/C (second compound 0.1 µM, first compound 10 µM): 94.8% | viability, T/C [5]: 125% | viability, T/C [6]: 108% | viability, T/C (second compound 0.316 µM, first compound 0.316 µM): 97% | viability, T/C (second compound 0.316 µM, first compound 1 µM): 105% | viability, T/C (second compound 0.316 µM, first compound 3.16 µM): 116% | viability, T/C (second compound 0.316 µM, first compound 10 µM): 108% | viability, T/C [7]: 120% | viability, T/C [8]: 115% | viability, T/C (second compound 1 µM, first compound 0.316 µM): 97.6% | viability, T/C (second compound 1 µM, first compound 1 µM): 118% | viability, T/C (second compound 1 µM, first compound 3.16 µM): 105% | viability, T/C (second compound 1 µM, first compound 10 µM): 108% | viability, T/C [9]: 123% | viability, T/C [10]: 110% | viability, T/C (second compound 3.16 µM, first compound 0.316 µM): 101% | viability, T/C (second compound 3.16 µM, first compound 1 µM): 112% | viability, T/C (second compound 3.16 µM, first compound 3.16 µM): 108% | viability, T/C (second compound 3.16 µM, first compound 10 µM): 121% | viability, T/C [11]: 61.1% | viability, T/C [12]: 68.6% | viability, T/C (second compound 10 µM, first compound 0.316 µM): 59.5% | viability, T/C (second compound 10 µM, first compound 1 µM): 61.2% | viability, T/C (second compound 10 µM, first compound 3.16 µM): 67.9% | viability, T/C (second compound 10 µM, first compound 10 µM): 88.5%

Cn1cnc2c(F)c(Nc3ccc(Br)cc3Cl)c(C(=O)NOCCO)cc21 + Cc1nc(NC(=O)N2CCCC2C(N)=O)sc1-c1ccnc(C(C)(C)C(F)(F)F)c1
IC50 (second compound 0.0316 µM): > 3000 nM | IC50 (second compound 0.1 µM): > 3000 nM | IC50 (second compound 0.316 µM): > 3000 nM | IC50 (second compound 1 µM): 1180 nM | IC50 (second compound 3.16 µM): 286 nM | IC50 (second compound 10 µM): 20.9 nM | viability, T/C (second compound 0.0316 µM, first compound 0.00949 µM): 111% | viability, T/C (second compound 0.0316 µM, first compound 0.03 µM): 124% | viability, T/C (second compound 0.0316 µM, first compound 0.0949 µM): 129% | viability, T/C (second compound 0.0316 µM, first compound 0.3 µM): 120% | viability, T/C (second compound 0.0316 µM, first compound 0.949 µM): 123% | viability, T/C (second compound 0.0316 µM, first compound 3 µM): 107% | viability, T/C (second compound 0.1 µM, first compound 0.00949 µM): 113% | viability, T/C (second compound 0.1 µM, first compound 0.03 µM): 109% | viability, T/C (second compound 0.1 µM, first compound 0.0949 µM): 114% | viability, T/C (second compound 0.1 µM, first compound 0.3 µM): 122% | viability, T/C (second compound 0.1 µM, first compound 0.949 µM): 114% | viability, T/C (second compound 0.1 µM, first compound 3 µM): 90.4% | viability, T/C (second compound 0.316 µM, first compound 0.00949 µM): 114% | viability, T/C (second compound 0.316 µM, first compound 0.03 µM): 123% | viability, T/C (second compound 0.316 µM, first compound 0.0949 µM): 116% | viability, T/C (second compound 0.316 µM, first compound 0.3 µM): 123% | viability, T/C (second compound 0.316 µM, first compound 0.949 µM): 94.1% | viability, T/C (second compound 0.316 µM, first compound 3 µM): 60.4% | viability, T/C (second compound 1 µM, first compound 0.00949 µM): 117% | viability, T/C (second compound 1 µM, first compound 0.03 µM): 125% | viability, T/C (second compound 1 µM, first compound 0.0949 µM): 100% | viability, T/C (second compound 1 µM, first compound 0.3 µM): 101% | viability, T/C (second compound 1 µM, first compound 0.949 µM): 51.8% | viability, T/C (second compound 1 µM, first compound 3 µM): 34.2% | viability, T/C (second compound 3.16 µM, first compound 0.00949 µM): 105% | viability, T/C (second compound 3.16 µM, first compound 0.03 µM): 87% | viability, T/C (second compound 3.16 µM, first compound 0.0949 µM): 61.6% | viability, T/C (second compound 3.16 µM, first compound 0.3 µM): 55.7% | viability, T/C (second compound 3.16 µM, first compound 0.949 µM): 30% | viability, T/C (second compound 3.16 µM, first compound 3 µM): 20.2% | viability, T/C (second compound 10 µM, first compound 0.00949 µM): 56.9% | viability, T/C (second compound 10 µM, first compound 0.03 µM): 46.5% | viability, T/C (second compound 10 µM, first compound 0.0949 µM): 34.3% | viability, T/C (second compound 10 µM, first compound 0.3 µM): 20.6% | viability, T/C (second compound 10 µM, first compound 0.949 µM): 10.7% | viability, T/C (second compound 10 µM, first compound 3 µM): 4.74%

— PubChem BioAssay AID1963968 (Molecular Pharmacology Branch, DTP, NCI, 2024)
